This is an account of results in PubChem BioAssay AID1918935 (Molecular Pharmacology Branch, DTP, NCI, 2023).

This assay has as its system 324938-238-R-J1-PDC complex spheroid viability. As to the kind of experiment: Anticancer human tumor 324938-238-R-J1-PDC patient-derived bladder carcinoma cell line growth inhibition. Conditions: for viability, T/C: stronger effect = lower value. The text has this:
Multicellular complex tumor spheroid response to LSD1 Inhibitor Iadademstat in combination with a variety of drugs and investigational agents in selected tumor cell lines
The current study was undertaken to assess response to LSD1 inhibitors in combination with standard-of-care drugs and investigational agents in solid tumor complex spheroid models as well as in the K-562 leukemia. Complex spheroids include a stromal component modeled by human endothelial cells (HUVEC) and fibroblasts modeled by human mesenchymal stem cells (MSCs). The concentration ranges selected for each drug and investigational agent were based upon clinically achievable concentrations if the clinical Cmax of the agent was known.
Compounds. The drugs and investigational agents used in this study are listed on Table 1. All of the agents used, including staurosporine (NSC755774) and gemcitabine (NSC613327), were obtained from the Developmental Therapeutics Program, NCI. FDA-approved anticancer drugs are available from the NCI at http://dtp.nci.nih.gov/branches/dscb/oncology_drugset_explanation.html. Drugs and investigational agents were >95% pure by proton nuclear magnetic resonance (NMR) and liquid chromatography/mass spectrometry (LC/MS). Stock solutions were prepared at 400x in DMSO, stored at -70 degrees C, and diluted in fresh medium prior to their use. The final concentration of DMSO in cell culture wells never exceeded 0.25% (v/v). The FDA-approved anticancer drug set is available from the Developmental Therapeutics Program at https://dtp.cancer.gov/organization/dscb/obtaining/available_plates.htm. All drugs and investigational agents were tested over a range starting from a high concentration at or near the clinical Cmax and decreasing in half-log increments. If the clinical Cmax for an agent had not been determined, the highest concentration tested was 10 microM.
Cell Lines. The patient-derived cancer cell (PDC) lines: 292921-168-R-J2-PDC, K24384-001-R-PDC, and 521955-158-R2-J5-PDC pancreatic carcinomas, 556581-035-R-J1 ovarian carcinoma, 324938-238-R-J1-PDC, 855422-203-R-J1-PDC and 883617-216-R-J1-PDC urothelial bladder carcinomas, 743489-274-T-PDC renal cell carcinoma, 138582-R-J1 Merkel cell tumor, K60290-347-R-J1 and K57222-313-R-J1-PDC glioblastomas, 653999-131-R-J2-PDC, LG0703-F948-PDC, and 349418-098-R-PDC non-small cell lung carcinomas, 885512-296-R-J2-PDC, 171881-019-R-J1-PDC breast carcinomas and 186277-243-T-J2-PDC and 233499-124-R-J2-PDC colon carcinomas were obtained from the NCI Patient-Derived Models Repository (PDMR, https://pdmr.cancer.gov). The established cell lines NCI/ADR-RES (RRID:CVCL_14520 and OVCAR-5 (RRID:CVCL_1628) ovarian carcinomas, 786-O (RRID:CVCL_1051) and A498 (RRID:CVCL_A498) renal cell carcinoma, NCI-H211 (ATCC, cat. CRL-5824; RRID:CVCL_1529), NCI-H196 (ATCC, cat. CRL-5823, RRID:CVCL_1509), SW 1271 (ATCC, cat. CRL-2177, RRID:CVCL_1716) and NCI-H1876 (ATCC, cat. CRL-5902, RRID:CVCL_1503) small cell lung carcinomas, MDA-MB-231 (RRID:CVCL_0062) and MDA-MB-468 (RRID:CVCL_0419)breast carcinomas (10-12). Pooled donor human umbilical vein endothelial cells (HUVEC, Lonza, cat. CC-2519) and human mesenchymal stem cells (hMSC, Lonza, cat. PT-2501) were purchased from Lonza (Walkersville, MD).
Cell Culture. All cells were maintained in an incubator at 37 degrees C and 5% CO2 with 95% humidity. The PDC lines were cultured according to standard operating procedures established by the NCI PDMR (https://pdmr.cancer.gov). Briefly all PDCs were thawed and cultured in Matrigel-coated flasks prepared with a working solution of 1X Ham's F-12 nutrient mix, without supplementation (Invitrogen, Waltham, MA, cat. 11765054), 100 U/mL penicillin-streptomycin (Invitrogen, cat. 15140122), and 2.5% Matrigel (Corning Inc., Corning, NY, cat. 354248) for the first three passages. […]

[1] abbreviates: curve of first compound, second compound 0.1 µM.
Setting [2] is: curve of first compound, second compound 0.316 µM.
The mark [3] stands for this setting: curve of first compound, second compound 1 µM.
The mark [4] stands for this setting: curve of first compound, second compound 3.16 µM.
Where [5] appears, read: curve of first compound, second compound 10 µM.
[6] abbreviates: second compound 0.1 µM, first compound 0.00949 µM.
[7] abbreviates: second compound 0.1 µM, first compound 0.03 µM.
The mark [8] stands for this setting: second compound 0.1 µM, first compound 0.0949 µM.
Setting [9] is: second compound 0.1 µM, first compound 0.3 µM.
[10] abbreviates: second compound 0.1 µM, first compound 0.949 µM.
Where [11] appears, read: second compound 0.1 µM, first compound 3 µM.
[12] abbreviates: second compound 0.316 µM, first compound 0.00949 µM.
The mark [13] stands for this setting: second compound 0.316 µM, first compound 0.03 µM.
Setting [14] is: second compound 0.316 µM, first compound 0.0949 µM.
Where [15] appears, read: second compound 0.316 µM, first compound 0.3 µM.
The mark [16] stands for this setting: second compound 0.316 µM, first compound 0.949 µM.
[17] abbreviates: second compound 0.316 µM, first compound 3 µM.
[18] abbreviates: second compound 1 µM, first compound 0.00949 µM.
[19] abbreviates: second compound 1 µM, first compound 0.03 µM.
Where [20] appears, read: second compound 1 µM, first compound 0.0949 µM.
[21] abbreviates: second compound 1 µM, first compound 0.3 µM.
[22] abbreviates: second compound 1 µM, first compound 0.949 µM.
[23] abbreviates: second compound 1 µM, first compound 3 µM.
The mark [24] stands for this setting: second compound 3.16 µM, first compound 0.00949 µM.
[25] abbreviates: second compound 3.16 µM, first compound 0.03 µM.
The mark [26] stands for this setting: second compound 3.16 µM, first compound 0.0949 µM.
Setting [27] is: second compound 3.16 µM, first compound 0.3 µM.
[28] abbreviates: second compound 3.16 µM, first compound 0.949 µM.
[29] abbreviates: second compound 3.16 µM, first compound 3 µM.
The mark [30] stands for this setting: second compound 10 µM, first compound 0.00949 µM.
The mark [31] stands for this setting: second compound 10 µM, first compound 0.03 µM.
Where [32] appears, read: second compound 10 µM, first compound 0.0949 µM.
Where [33] appears, read: second compound 10 µM, first compound 0.3 µM.
Setting [34] is: second compound 10 µM, first compound 0.949 µM.
[35] abbreviates: second compound 10 µM, first compound 3 µM.

Where “and” joins values, the source holds several entries; their conditions need not be identical. Equal entries are not always repeated. Bounds are passed on as bounds.
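Also: spheroids also contain HUVEC and human MSCs and agents combined with iadademstat; spheroids exposed to agents for 7 days before readout.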

`CCc1c2c(nc3ccc(O)cc13)-c1cc3c(c(=O)n1C2)COC(=O)[C@]3(O)CC`: the viability, T/C (usually the result in the treated group divided by that in the control group, in per cent) is 7.99% and 9.82% (compound 0.000949 µM); 9.25% and 10.8% (compound 0.003 µM); 6.79% and 6.81% (compound 0.00949 µM); 2.02% and 1.48% (compound 0.03 µM); 0.16% and 0.66% (compound 0.0949 µM); 0.2% and 0.27% (compound 0.3 µM). Moreover, for the setting “curve of compound”, the IC50 (usually the concentration at which inhibition is half-maximal) is below 0.949 nM.

As to `NS(=O)(=O)OCC1CC(n2ccc3c(NC4CCc5ccccc54)ncnc32)CC1O` (centres undefined) + NC1CC1c1ccc(-c2cccc(O)c2)cc1, the IC50 by setting is: under setting [1], 327 nM; under setting [2], 230 nM; under setting [3], 299 nM; under setting [4], 300 nM; under setting [5], 334 nM. For the same molecule, the viability, T/C under setting [6] is 97.7%; the viability, T/C under setting [7] was 101%; the viability, T/C under setting [8] is 95.1%; the viability, T/C under setting [9] was 53.2%; the viability, T/C under setting [10] was 12.4%; the viability, T/C under setting [11] was 12%. Besides, the viability, T/C under setting [12] was 84.6%; the viability, T/C under setting [13] was 84.8%; the viability, T/C under setting [14] is 76%; the viability, T/C under setting [15] is 42.7%; the viability, T/C under setting [16] is 12.5%; the viability, T/C under setting [17] is 11.9%. The viability, T/C is, setting by setting: under setting [18], 95.6%; under setting [19], 77.8%; under setting [20], 84.8%; under setting [21], 49.9%; under setting [22], 11.3%; under setting [23], 9.03%. Also, the viability, T/C was 88.9% under setting [24]; 93.6% under setting [25]; 86.4% under setting [26]; 50.3% under setting [27]; 12.2% under setting [28]; 9.8% under setting [29]. The viability, T/C is 74.8% under setting [30]; 86.4% under setting [31]; 80.1% under setting [32]; 52.6% under setting [33]; 19.7% under setting [34]; 12.4% under setting [35].

In the case of `CC1COCCN1c1cc(C2(S(C)(=N)=O)CC2)nc(-c2ccnc3[nH]ccc23)n1` (centres undefined), the viability, T/C reads like this: (compound 0.0316 µM) 104% and 97.9%; (compound 0.1 µM) 101% and 108%; (compound 0.316 µM) 98.3% and 78.8%; (compound 1 µM) 71.4% and 44.7%; (compound 3.16 µM) 27.9% and 21.4%; (compound 10 µM) 14.6% and 8.79%. Also, the 50% inhibitory concentration (IC50) (curve of compound) is 1760 nM and 853 nM.

Regarding `Nc1ccccc1NC(=O)c1ccc(CNC(=O)OCc2cccnc2)cc1` + NC1CC1c1ccc(-c2cccc(O)c2)cc1, the half-maximal inhibitory concentration (IC50) runs as follows: under setting [1], 501 nM; under setting [2], 437 nM; under setting [3], 487 nM; under setting [4], 489 nM; under setting [5], 401 nM. For the same molecule, the viability, T/C under setting [6] is 86.6%; the viability, T/C under setting [7] was 87.6%; the viability, T/C under setting [8] was 70.2%; the viability, T/C under setting [9] was 62.6%; the viability, T/C under setting [10] is 36.7%; the viability, T/C under setting [11] was 7.26%. Also, the viability, T/C under setting [12] is 83.8%; the viability, T/C under setting [13] was 80.1%; the viability, T/C under setting [14] is 71.7%; the viability, T/C under setting [15] was 56.1%; the viability, T/C under setting [16] is 35.9%; the viability, T/C under setting [17] is 5.68%. Further, the viability, T/C is 67.2% under setting [18]; 76% under setting [19]; 66.7% under setting [20]; 56.3% under setting [21]; 39.5% under setting [22]; 3.75% under setting [23]. The viability, T/C is 76.7% under setting [24]; 67% under setting [25]; 70.4% under setting [26]; 59.2% under setting [27]; 37.6% under setting [28]; 5.73% under setting [29]. Also, the viability, T/C runs as follows: under setting [30], 63.2%; under setting [31], 66.1%; under setting [32], 68.2%; under setting [33], 51.2%; under setting [34], 36.4%; under setting [35], 6.9%.

As to `CCN(c1cc(-c2ccc(CN3CCOCC3)cc2)cc(C(=O)NCc2c(C)cc(C)[nH]c2=O)c1C)C1CCOCC1` + NC1CC1c1ccc(-c2cccc(O)c2)cc1, the IC50 reads like this: under setting [1], above 3000 nM; under setting [2], above 3000 nM; under setting [3], above 3000 nM; under setting [4], above 3000 nM; under setting [5], above 3000 nM. For the same molecule, the viability, T/C reads like this: under setting [6], 91.3%; under setting [7], 91.9%; under setting [8], 89.8%; under setting [9], 79.1%; under setting [10], 89%; under setting [11], 80.1%. The viability, T/C is 84.4% under setting [12]; 80.1% under setting [13]; 80.3% under setting [14]; 81.6% under setting [15]; 85.1% under setting [16]; 79.8% under setting [17]. For the same molecule, the viability, T/C under setting [18] is 74.2%; the viability, T/C under setting [19] was 77.2%; the viability, T/C under setting [20] was 72.6%; the viability, T/C under setting [21] was 72.9%; the viability, T/C under setting [22] was 76.9%; the viability, T/C under setting [23] is 78.6%. Besides, the viability, T/C is, setting by setting: under setting [24], 79%; under setting [25], 79.3%; under setting [26], 77.1%; under setting [27], 77.5%; under setting [28], 76.6%; under setting [29], 74.2%. Moreover, the viability, T/C under setting [30] was 66.4%; the viability, T/C under setting [31] was 77%; the viability, T/C under setting [32] is 66.8%; the viability, T/C under setting [33] was 62.8%; the viability, T/C under setting [34] was 66.5%; the viability, T/C under setting [35] was 68.1%.
